Where “and” joins values, the source holds several entries; their conditions need not be identical. Identical values can stand only once.
Test system: Rattus norvegicus
[1] = reproduction developmental, oral, gavage, M, Crl:CD(SD), generation: P0, P0: General Toxicity: Whole Body: Necropsy Appeared Normal + P0: Nervous: CNS: Latency to Mount
[2] = reproduction developmental, oral, gavage, M, Sprague-Dawley, generation: P0, P0: General Toxicity: Whole Body: Body Weight Change + P0: General Toxicity: Whole Body: Clinical Observations + P0: General Toxicity: Whole…
[3] = short-term, duration: 28 days, oral, gavage, F, Crl:CD(SD), Liver: Liver Weight, Relative + Liver: Liver, Enlarged + Teeth: Incisors, Discolored
[4] = short-term, duration: 28 days, oral, gavage, F, Crl:CD(SD), Whole Body: Dystocia
[5] = short-term, duration: 28 days, oral, gavage, M/F, Crl:CD(SD), Adrenal: Adrenal Cortex Histopathology + Blood: Chloride (CL), Blood + Blood: Globulin (G), Blood + Blood: Potassium (K), Blood + Blood: …
[6] = short-term, duration: 28 days, oral, gavage, M/F, Crl:CD(SD), Whole Body: Body Weight Change + Whole Body: Body Weight, Absolute
[7] = short-term, duration: 28 days, oral, gavage, M, Crl:CD(SD), Teeth: Incisors, Discolored + Teeth: Teeth, Mottled
[8] = subchronic, duration: 90 days, oral, gavage, F, Crl:CD(SD), Blood: Activated Partial Thromboplastin Time (APTT) + Blood: Cholesterol (CHOL), Total + Blood: Fluoride (Plasma) + Blood: Hematocrit (HCT…
[9] = subchronic, duration: 90 days, oral, gavage, F, Crl:CD(SD), Blood: Activated Partial Thromboplastin Time (APTT) + Blood: Hematocrit (HCT) + Blood: Hemoglobin (HGB) + Blood: Red Blood Cell (RBC) + …
[10] = subchronic, duration: 90 days, oral, gavage, F, Crl:CD(SD), Blood: Cholesterol (CHOL), Total + Kidney: Kidney Weight, Absolute + Kidney: Kidney Weight, Relative + Kidney: Kidney Weight, Relative to …
[11] = subchronic, duration: 90 days, oral, gavage, F, Crl:CD(SD), Blood: Fluoride (Plasma), Recovery + Blood: Inorganic Phosphorous (PHOS) + Calcium (CA) + Kidney: Blood Urea Nitrogen (BUN), Blood + Kidney…
[12] = subchronic, duration: 90 days, oral, gavage, F, Crl:CD(SD), General Toxicity: Whole Body: Body Weight Change + General Toxicity: Whole Body: Clinical Observations + General Toxicity: Whole Body: …
[13] = subchronic, duration: 90 days, oral, gavage, F, Crl:CD(SD), Hematologic: Blood: Activated Partial Thromboplastin Time (APTT) + Hematologic: Blood: Hematocrit (HCT) + Hematologic: Blood: Hemoglobin (…
[14] = subchronic, duration: 90 days, oral, gavage, F, Crl:CD(SD), Kidney: Kidney Weight, Absolute + Liver: Liver Histopathology + Liver: Liver Weight, Absolute + Renal: Urinalysis, Unspecified
[15] = subchronic, duration: 90 days, oral, gavage, F, Crl:CD(SD), Other Systems: Eye: Ophthalmology + Other Systems: Nasal Cavity: Nasal Cavity/Tubinates Inflammation, Chronic, Focal/Multifocal + Other …
[16] = subchronic, duration: 90 days, oral, gavage, F, Crl:CD(SD), Pancreas: Pancreas Histopathology
[17] = subchronic, duration: 90 days, oral, gavage, F, Sprague-Dawley, Hematologic: Blood: Activated Partial Thromboplastin Time (APTT) + Hematologic: Blood: Hematocrit (HCT) + Hematologic: Blood: Hemoglobin (…
[18] = subchronic, duration: 90 days, oral, gavage, M, Crl:CD(SD), Blood: Activated Partial Thromboplastin Time (APTT) + Blood: Albumin/Globulin (A/G) Ratio + Blood: Fluoride (Plasma) + Blood: Hematocrit (…
[19] = subchronic, duration: 90 days, oral, gavage, M, Crl:CD(SD), Blood: Activated Partial Thromboplastin Time (APTT) + Blood: Hematocrit (HCT) + Blood: Hemoglobin (HGB) + Blood: Red Blood Cell (RBC) + …
[20] = subchronic, duration: 90 days, oral, gavage, M, Crl:CD(SD), Blood: Fluoride (Plasma), Recovery + Blood: Hematocrit (HCT) + Blood: Hemoglobin (HGB) + Liver: Liver, Biliary Hyperplasia + Liver: Liver, …
[21] = subchronic, duration: 90 days, oral, gavage, M, Crl:CD(SD), Blood: Inorganic Phosphorous (PHOS) + Blood: Potassium (K), Blood + Kidney: Blood Urea Nitrogen (BUN), Blood + Kidney: Kidney Weight, …
[22] = subchronic, duration: 90 days, oral, gavage, M, Crl:CD(SD), Blood: Inorganic Phosphorous (PHOS), Blood + Blood: Potassium (K), Blood + Epididymis: Epididymis Weight, Relative + Kidney: Blood Urea …
[23] = subchronic, duration: 90 days, oral, gavage, M, Crl:CD(SD), Blood: Total Protein (TP), Blood + Kidney: Kidney Histopathology + Kidney: Kidney Weight, Absolute + Liver: Total Bilirubin (TBILI), Blood…
[24] = subchronic, duration: 90 days, oral, gavage, M, Crl:CD(SD), General Toxicity: Whole Body: Body Weight Change + General Toxicity: Whole Body: Clinical Observations + General Toxicity: Whole Body: …
[25] = subchronic, duration: 90 days, oral, gavage, M, Crl:CD(SD), Hematologic: Blood: Activated Partial Thromboplastin Time (APTT) + Hematologic: Blood: Hematocrit (HCT) + Hematologic: Blood: Hemoglobin (…
[26] = subchronic, duration: 90 days, oral, gavage, M, Sprague-Dawley, Hematologic: Blood: Activated Partial Thromboplastin Time (APTT) + Hematologic: Blood: Hematocrit (HCT) + Hematologic: Blood: Hemoglobin (…

Compound `OCCC(F)(F)C(F)(F)C(F)(F)C(F)(F)C(F)(F)C(F)(F)F` [2-(Perfluorohexyl)ethanol] has an NOAEL (reproduction developmental, oral, gavage, M/F, Crl:CD(SD), generation: P0, P0: Reproductive: Whole Body: Gestation Index) of 25 mg/kg-day, an LOAEL [1] of 225 mg/kg-day and an NOAEL [1] of 75 mg/kg-day. For the same compound, the NOAEL (reproduction developmental, oral, gavage, M, Crl:CD(SD), generation: P0, P0: Nervous: CNS: Latency to Mount) was 225 mg/kg-day, the LOAEL (reproduction developmental, oral, gavage, M, Sprague-Dawley, generation: P0, P0: Endocrine: Pituitary: Pituitary Gland Histopathology + P0: Endocrine: Pituitary: Pituitary Gland Weight, Absolute + P0: Endocrine: …) was 125 mg/kg-day and the LOAEL [2] was 125 mg/kg-day. It also gave an NOAEL [2] of 25 mg/kg-day, an NEL (short-term, duration: 4 weeks, inhalation, F, Crl:CD(SD), Adrenal: Adrenal Gland Weight, Absolute + Adrenal: Adrenal Gland Weight, Absolute, Recovery + Adrenal: Adrenal Gland Weight, Relative + …) of 1490 mg/m3 and an LEL (short-term, duration: 4 weeks, inhalation, F, Crl:CD(SD), Blood: Hematocrit (HCT) + Blood: Hemoglobin (HGB) + Blood: Red Blood Cell (RBC) + Bone: Decalcification, Trabeculae (4 wk) + Bone: …) of 1490 mg/m3. For the same compound, the NEL (short-term, duration: 4 weeks, inhalation, F, Crl:CD(SD), Blood: Hematocrit (HCT) + Blood: Hemoglobin (HGB) + Blood: Red Blood Cell (RBC) + Liver: Alanine Aminotransferase (ALT), Blood + Liver: …) was 149 mg/m3, the NEL (short-term, duration: 4 weeks, inhalation, M, Crl:CD(SD), Adrenal: Adrenal Gland Weight, Absolute + Adrenal: Adrenal Gland Weight, Absolute, Recovery + Adrenal: Adrenal Gland Weight, Relative + …) was 1490 mg/m3 and the LEL (short-term, duration: 4 weeks, inhalation, M, Crl:CD(SD), Bone: Decalcification, Trabeculae (4 wk) + Bone: Decalcification, Trabeculae (8 wk) + Kidney: Total Protein (TP), Urine + Liver: Albumin (A…) was 1490 mg/m3. For the same compound, the NEL (short-term, duration: 4 weeks, inhalation, M, Crl:CD(SD), Kidney: Total Protein (TP), Urine + Liver: Albumin (A), Blood + Liver: Liver Weight, Absolute + Liver: Liver Weight, Relative + Liver: Liver…) was 149 mg/m3, the LEL [3] was 25 mg/kg-day and the NEL [3] was 5 mg/kg-day. For the same compound, the NEL (short-term, duration: 28 days, oral, gavage, F, Crl:CD(SD), Teeth: Teeth, Mottled) was 125 mg/kg-day, the LEL [4] was 225 mg/kg-day and the NEL [4] was 75 mg/kg-day. For the same compound, the LEL [5] was 225 mg/kg-day, the NEL [5] was 75 mg/kg-day and the LEL [6] was 75 mg/kg-day. For the same compound, the NEL [6] was 25 mg/kg-day, the NEL (short-term, duration: 28 days, oral, gavage, M, Crl:CD(SD), Liver: Liver Weight, Relative + Liver: Liver, Enlarged) was 125 mg/kg-day and the LEL [7] was 25 mg/kg-day. The NEL [7] was 5 mg/kg-day, the NEL (subchronic, duration: 90 days, oral, gavage, F, Crl:CD(SD), Adrenal: Adrenal Gland Weight, Absolute + Adrenal: Adrenal Gland Weight, Relative + Blood: Basophils + Blood: Calcium (CA), Blood + Blood: …) was 250 mg/kg-day and the LEL [8] was 125 mg/kg-day. It also gave an NEL [8] of 25 mg/kg-day, an LEL [9] of 125 mg/kg-day and an NEL [9] of 25 mg/kg-day. For the same compound, the LEL [10] was 25 mg/kg-day, the NEL [10] was 5 mg/kg-day and the LEL [11] was 250 mg/kg-day. For the same compound, the NEL [11] was 125 mg/kg-day, the NEL (subchronic, duration: 90 days, oral, gavage, F, Crl:CD(SD), Blood: Inorganic Phosphorous (PHOS) + Blood: Triglycerides (TRIG) + Calcium (CA) + Kidney: Blood Urea Nitrogen (BUN), Blood + Kidney: …) was 250 mg/kg-day and the LOAEL (subchronic, duration: 90 days, oral, gavage, F, Crl:CD(SD), Cardiovascular: Heart: Heart Weight, Absolute + Cardiovascular: Heart: Heart Weight, Relative + Endocrine: Adrenal: Adrenal Gland Weight, …) was 25 mg/kg-day. For the same compound, the LOAEL [12] was 125 mg/kg-day, the NOAEL [12] was 25 mg/kg-day and the LOAEL [13] was 25 mg/kg-day. It also gave an NOAEL [13] of 5 mg/kg-day, an LEL [14] of 25 mg/kg-day and an NEL [14] of 5 mg/kg-day. It also gave an LOAEL [15] of 250 mg/kg-day, an NOAEL [15] of 125 mg/kg-day and an LEL [16] of 250 mg/kg-day. For the same compound, the NEL [16] was 125 mg/kg-day, the LOAEL [17] was 25 mg/kg-day and the NOAEL [17] was 5 mg/kg-day. It also gave an NOAEL (subchronic, duration: 90 days, oral, gavage, F, Sprague-Dawley, Other Systems: Tooth: Tooth Discoloration + Other Systems: Tooth: Tooth Discoloration, Recovery + Other Systems: Tooth: Tooth Findings, …) of 250 mg/kg-day, an NEL (subchronic, duration: 90 days, oral, gavage, M, Crl:CD(SD), Adrenal: Adrenal Gland Weight, Absolute + Adrenal: Adrenal Gland Weight, Relative + Blood: Basophils + Blood: Calcium (CA), Blood + Blood: …) of 250 mg/kg-day and an LEL [18] of 25 mg/kg-day. For the same compound, the NEL [18] was 5 mg/kg-day, the LEL [19] was 25 mg/kg-day and the NEL [19] was 5 mg/kg-day. The LEL [20] was 250 mg/kg-day, the NEL [20] was 125 mg/kg-day and the LEL [21] was 125 mg/kg-day. It also gave an NEL [21] of 25 mg/kg-day, an LEL [22] of 125 mg/kg-day and an NEL [22] of 25 mg/kg-day. The LEL [23] was 250 mg/kg-day, the NEL [23] was 125 mg/kg-day and the LOAEL (subchronic, duration: 90 days, oral, gavage, M, Crl:CD(SD), Cardiovascular: Heart: Heart Weight, Absolute + Cardiovascular: Heart: Heart Weight, Relative + Endocrine: Adrenal: Adrenal Gland Weight, …) was 25 mg/kg-day. For the same compound, the LOAEL [24] was 125 mg/kg-day, the NOAEL [24] was 25 mg/kg-day and the LOAEL [25] was 25 mg/kg-day. The NOAEL [25] was 5 mg/kg-day, the LOAEL (subchronic, duration: 90 days, oral, gavage, M, Crl:CD(SD), Immune: Blood: Basophils + Immune: Blood: Eosinophils + Immune: Blood: Lymphocyte + Immune: Blood: Monocytes + Immune: Blood: Neutrophils + …) was 250 mg/kg-day and the LOAEL (subchronic, duration: 90 days, oral, gavage, M, Crl:CD(SD), Other Systems: Eye: Ophthalmology + Other Systems: Nasal Cavity: Nasal Cavity/Tubinates Inflammation, Chronic, Focal/Multifocal + Other …) was 125 mg/kg-day and 250 mg/kg-day. It also gave an LOAEL (subchronic, duration: 90 days, oral, gavage, M, Crl:CD(SD), Reproductive: Epididymis: Epididymis Weight, Absolute + Reproductive: Epididymis: Epididymis Weight, Relative + Reproductive: Testis: Testis…) of 5 mg/kg-day, an LOAEL [26] of 25 mg/kg-day and an NOAEL [26] of 5 mg/kg-day. For the same compound, the NOAEL (subchronic, duration: 90 days, oral, gavage, M, Sprague-Dawley, Other Systems: Blood: Potassium (K) + Other Systems: Tooth: Tooth Discoloration + Other Systems: Tooth: Tooth Discoloration, Recovery + …) was 250 mg/kg-day.
